Laboratory results published in patent US20250368678A1, “19-NOR-C3,3-DISUBSTITUTED C21-AZACYCLO-S[…] AND METHOD FOR USING SAME” (SHANDONG LUYE PHARMACEUTICAL CO., LTD., priority 2022, published 2025).

Legend:
[1] = target: T1, α1β2γ2 GABA receptors (α1β2γ2-CHO-TRex stable cell strain) (Homo sapiens, UniProt P14867+P47870); experiment: Whole-cell patch clamp, intrasynaptic functional activity (positive allosteric regulation of GABA-induced current); format: cell-based; conditions: patch clamp -60 mV, GABA at EC10-20, α1β2γ2-CHO-TRex cells
T1 construct: expressed in transfected cells
T1 sequence (P14867 28-456): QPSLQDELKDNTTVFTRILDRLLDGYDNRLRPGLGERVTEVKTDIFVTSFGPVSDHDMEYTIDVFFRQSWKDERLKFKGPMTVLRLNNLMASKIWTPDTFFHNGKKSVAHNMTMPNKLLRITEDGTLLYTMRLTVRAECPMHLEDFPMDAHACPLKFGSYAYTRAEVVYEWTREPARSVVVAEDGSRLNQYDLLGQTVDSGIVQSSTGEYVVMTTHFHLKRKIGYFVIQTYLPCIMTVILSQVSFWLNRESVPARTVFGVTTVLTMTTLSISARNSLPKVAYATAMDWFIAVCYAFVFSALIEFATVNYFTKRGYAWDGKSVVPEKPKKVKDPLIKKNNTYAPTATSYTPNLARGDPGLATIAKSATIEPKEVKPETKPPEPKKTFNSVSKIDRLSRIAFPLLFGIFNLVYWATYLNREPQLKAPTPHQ
T1 sequence (P47870 25-512 limits assumed): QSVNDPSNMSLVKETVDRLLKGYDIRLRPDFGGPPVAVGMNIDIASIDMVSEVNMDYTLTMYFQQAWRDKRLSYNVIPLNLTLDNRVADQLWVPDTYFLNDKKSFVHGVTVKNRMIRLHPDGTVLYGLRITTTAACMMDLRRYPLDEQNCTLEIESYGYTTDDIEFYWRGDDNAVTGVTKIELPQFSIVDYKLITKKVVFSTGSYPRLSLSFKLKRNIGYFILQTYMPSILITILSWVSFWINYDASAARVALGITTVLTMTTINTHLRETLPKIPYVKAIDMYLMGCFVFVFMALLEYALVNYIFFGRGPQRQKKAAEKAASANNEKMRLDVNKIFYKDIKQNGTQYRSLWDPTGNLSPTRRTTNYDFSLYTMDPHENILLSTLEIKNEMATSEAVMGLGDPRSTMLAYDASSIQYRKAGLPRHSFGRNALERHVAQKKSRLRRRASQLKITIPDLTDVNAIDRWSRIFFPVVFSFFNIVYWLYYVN
T1 sequence (P18507 40-475 partner): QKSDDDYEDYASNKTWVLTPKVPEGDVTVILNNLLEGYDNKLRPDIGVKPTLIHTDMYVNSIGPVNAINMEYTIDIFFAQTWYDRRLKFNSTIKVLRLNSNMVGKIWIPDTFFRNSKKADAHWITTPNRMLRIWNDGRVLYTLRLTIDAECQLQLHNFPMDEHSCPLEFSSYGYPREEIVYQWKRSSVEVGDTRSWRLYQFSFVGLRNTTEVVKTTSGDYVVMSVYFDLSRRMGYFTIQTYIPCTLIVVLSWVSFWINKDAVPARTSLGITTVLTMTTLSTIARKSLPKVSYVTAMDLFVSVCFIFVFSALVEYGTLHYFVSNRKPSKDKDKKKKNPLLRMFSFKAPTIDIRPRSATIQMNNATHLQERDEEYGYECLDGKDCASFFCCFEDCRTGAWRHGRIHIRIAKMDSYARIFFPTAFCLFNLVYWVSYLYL
Experimental: (§1) The α4β3δ-HEK-FlpIn-TRex stable cell strain was cultured in DMEM+10% FBS complete culture medium, with the selective antibiotics being 10 μg/mL Blasticidin, 100 µg/mL Zeocin, 100 µg/mL Hygromycin, and 0.2 μg/mL Puromycin. The α1β2γ2-CHO-TRex stable cell strain was cultured in DMEM/F12+10% FBS complete culture medium, with the selective antibiotics being 10 μg/mL Blasticidin, 100 μg/mL Zeocin, 300 μg/mL Hygromycin, and […] Puromycin.
(§2) The day before the patch clamp experiment, cells were seeded onto 12 mm polylysine-coated coverslips and then cultured in 35 mm culture dishes, and tetracycline ([…]) was added to induce the expression of GABA receptors. The extracellular fluid had the following composition (in mM): 140 NaCl, 3 KCl, 1.5 MgCl2, 2 CaCl2, 10 HEPES, and 10 Glucose. After thorough mixing, NaOH was added to adjust the pH to 7.4, and sucrose was added to adjust the osmotic pressure to 300-320 mOsm. The fluid was stored at 4° C. The electrode internal solution had the following composition (in mM): 145 KCl, 1 MgCl2, 5 EGTA, 10 HEPES, and 5 MgATP. After thorough mixing, KOH was added to adjust the pH to 7.3, and sucrose was added to adjust the osmotic pressure to 290-300 mOsm. The solution was filtered through a […] before use.
(§3) Whole-cell patch clamp recording was mainly employed in this experiment. The membrane potential was clamped at −60 mV, and receptors were activated using GABA at an EC10-20 concentration ([…]). The test compounds were dissolved in 0.1% DMSO, and perfusion was performed for 30 s prior to GABA stimulation. Finally, the positive allosteric regulating effects of the test compounds on α1β2γ2 or α4β3δ were determined.
(§4) The experimental result for each concentration was expressed as a fold increase in the GABA-induced current caused by the compound. […] At least 5 concentrations are tested to obtain a complete EC50 curve and EC50 values. All experiments were repeated on no less than 3 cells, and data processing was completed using GraphPad prism software. The dose-response curves were fitted using the Hill equation, and the half-maximal activating concentration EC50 and Emax were finally obtained.

[2] = In vitro liver microsomal stability assay, human; format: in vitro ADME; conditions: for CLint scaled at 1 µM / half-life at 1 µM / microsomal CLint at 1 µM: Human liver microsomes; for Remaining amount % at 60 min: Human liver microsomes 0.5 mg/mL, NADPH; for microsomal CLint at 1 µM: read-out: CLint(mic)
Experimental: (§5) 1) Preparation of working solutions of test samples: The test samples were diluted with acetonitrile to 100 M.
(§6) 2) Preparation of a working solution of liver microsomes: liver microsomes were diluted with 100 mM phosphate-buffered saline to 0.56 mg/mL.
(§7) 3) Preparation of a working solution of reduced nicotinamide adenine dinucleotide (NADPH): A proper amount of NADPH was weighed out and diluted with phosphate-buffered saline to 20 mM, and an equal volume of a 60 mM MgCl2 solution was added.
(§8) 4) Preparation of a stop solution: Tolbutamide was diluted with acetonitrile to 20 ng/mL, serving as a stop solution containing an internal standard.
(§9) 1) Incubation anti-adsorption EP tubes were prepared and labeled with species, test/control sample, time points (0, 5, 10, 20, 30, 60 min, Blank60, and NCF60), etc.
(§10) 2) 2 L of test or control sample working solution, diluted with acetonitrile to 100 M, and 178 L of liver microsome working solution were added to each tube. For the Blank60 tube, 2 L of acetonitrile was added instead of a test sample. The tubes were pre-incubated in a 37° C. water bath for about 10 min, with each sample tested in triplicate.
(§11) 3) After the pre-incubation was complete, 20 L of NADPH working solution was added to each tube except for the 0 min and NCF60 tubes to start reactions, and 20 L of phosphate-buffered saline (containing 30 mM MgCl2) was added to the NCF60 tube. In the incubation system, the final concentrations of the test and control samples were 1 M, the final concentration of liver microsomes was 0.5 mg/mL, the final concentration of NADPH was 1 mM, and the final concentration of MgCl2 was 3 mM.
(§12) 4) For the 0 min sample, 600 L of stop solution was added before adding the NADPH working solution. After each sample was incubated for its respective time, 600 L of stop solution was added to stop the reaction.
(§13) 5) After the reaction was stopped, each sample was vortexed for 30 s and then centrifuged at 13,500 rpm for 10 min. 100 L of the supernatant was transferred to an EP tube, and 100 L Milli-Q water was added. The mixture was well mixed by vortexing and analyzed by LC-MS/MS.
(§14) 6) Testosterone and dextromethorphan were used as positive control samples under the same conditions to assess the stability and reliability of the system.
(§15) Parameters of the test samples, including their half-lives, intrinsic clearance rates in liver microsomes, and hepatic intrinsic clearance rates, were calculated based on the percentage of test sample remaining.

[3] = target: T2, α4β3δ GABA receptors (α4β3δ-HEK-FlpIn-TRex stable cell strain) (Homo sapiens, UniProt P28472+P48169); experiment: Whole-cell patch clamp, extrasynaptic functional activity (positive allosteric regulation of GABA-induced current); format: cell-based; conditions: patch clamp -60 mV, GABA at EC10-20, α4β3δ-HEK-FlpIn-TRex cells
T2 construct: expressed in transfected cells
T2 sequence (P48169 36-554): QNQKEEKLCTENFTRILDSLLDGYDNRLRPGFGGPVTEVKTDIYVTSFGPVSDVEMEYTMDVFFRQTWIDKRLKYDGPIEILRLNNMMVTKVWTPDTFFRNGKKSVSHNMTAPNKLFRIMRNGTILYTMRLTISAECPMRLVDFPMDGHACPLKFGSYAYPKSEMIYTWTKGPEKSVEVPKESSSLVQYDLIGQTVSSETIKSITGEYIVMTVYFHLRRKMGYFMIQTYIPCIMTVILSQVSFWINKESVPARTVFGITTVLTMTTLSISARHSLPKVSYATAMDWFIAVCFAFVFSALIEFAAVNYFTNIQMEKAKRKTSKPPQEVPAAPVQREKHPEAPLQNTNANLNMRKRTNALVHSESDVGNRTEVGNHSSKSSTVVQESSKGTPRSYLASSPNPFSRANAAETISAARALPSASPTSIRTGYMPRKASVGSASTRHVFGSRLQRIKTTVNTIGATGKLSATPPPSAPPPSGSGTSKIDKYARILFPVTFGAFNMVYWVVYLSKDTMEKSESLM
T2 sequence (P28472 26-473): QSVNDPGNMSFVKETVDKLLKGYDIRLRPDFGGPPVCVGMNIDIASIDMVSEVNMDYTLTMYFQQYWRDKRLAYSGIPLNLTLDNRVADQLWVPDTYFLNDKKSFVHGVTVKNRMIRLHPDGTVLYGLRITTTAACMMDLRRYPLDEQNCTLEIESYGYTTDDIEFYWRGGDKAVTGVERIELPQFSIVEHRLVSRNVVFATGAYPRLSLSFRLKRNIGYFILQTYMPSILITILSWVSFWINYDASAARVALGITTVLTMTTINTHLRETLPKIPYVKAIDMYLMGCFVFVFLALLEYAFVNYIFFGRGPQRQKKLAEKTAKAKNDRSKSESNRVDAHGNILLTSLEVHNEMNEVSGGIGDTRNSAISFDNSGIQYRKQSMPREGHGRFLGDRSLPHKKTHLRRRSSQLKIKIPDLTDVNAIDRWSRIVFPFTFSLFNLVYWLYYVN
T2 sequence (O14764 25-452 partner): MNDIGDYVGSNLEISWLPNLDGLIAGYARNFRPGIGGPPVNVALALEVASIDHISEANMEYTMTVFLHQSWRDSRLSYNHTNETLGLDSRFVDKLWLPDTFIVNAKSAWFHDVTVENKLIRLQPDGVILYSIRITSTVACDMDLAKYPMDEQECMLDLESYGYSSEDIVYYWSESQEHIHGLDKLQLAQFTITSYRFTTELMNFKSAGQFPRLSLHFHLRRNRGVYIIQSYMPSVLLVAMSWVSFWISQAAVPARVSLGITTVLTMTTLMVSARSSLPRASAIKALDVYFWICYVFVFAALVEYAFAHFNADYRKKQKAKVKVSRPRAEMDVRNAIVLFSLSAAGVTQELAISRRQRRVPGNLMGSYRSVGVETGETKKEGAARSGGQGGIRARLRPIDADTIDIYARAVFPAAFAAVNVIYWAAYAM
Experimental: as §1, §2, §3, §4

[4] = In vitro liver microsomal stability assay, rat; format: in vitro ADME; conditions: for CLint scaled at 1 µM / half-life at 1 µM / microsomal CLint at 1 µM: Rat liver microsomes; for Remaining amount % at 60 min: Rat liver microsomes 0.5 mg/mL, NADPH; for microsomal CLint at 1 µM: read-out: CLint(mic)
Experimental: as §5, §6, §7, §8, §9, §10, §11, §12, §13, §14, §15

SMILES	Emax [1] [%]	CLint scaled at 1 µM [2] [mL/min/kg]	half-life at 1 µM [2] [min]	Remaining amount % at 60 min [2] [%]	microsomal CLint at 1 µM [2] [µL/min/mg]	Emax [3] [%]	CLint scaled at 1 µM [4] [mL/min/kg]	half-life at 1 µM [4] [min]	Remaining amount % at 60 min [4] [%]	microsomal CLint at 1 µM [4] [µL/min/mg]	EC50 [1] [nM]	EC50 [3] [nM]
COCCn1ncn(CC(=O)[C@H]2CC[C@H]3[C@@H]4CC[C@@H]5C[C@](C)(O)CC[C@@H]5[C@H]4CC[C@]23C)c1=O [Compound 31]	735	37	34.1	28.5	41	609	234	10.7	2.1	130	–	–
C[C@@]1(O)CC[C@H]2[C@H](CC[C@@H]3[C@@H]2CC[C@]2(C)[C@@H](C(=O)Cn4cnn(-c5nccs5)c4=O)CC[C@@H]32)C1 [Compound 32]	763	19	64.8	66.8	21	633	152	15.4	7.7	85	330	126
C[C@@]1(O)CC[C@@]2(C)[C@@H](CC[C@@H]3[C@@H]2CC[C@]2(C)[C@@H](C(=O)Cn4cnn(-c5cccc(F)c5)c4=O)CC[C@@H]32)C1 [Compound 33]	495	< 6.7	> 186	85.8	< 7.5	936	29	85.6	62.2	16	598	96
C[C@@]1(O)CC[C@H]2[C@H](CC[C@@H]3[C@@H]2CC[C@]2(C)[C@@H](C(=O)Cn4cnn(-c5cccc(C#N)c5)c4=O)CC[C@@H]32)C1 [Compound 34]	–	7	178	79.9	8	683	98	25.6	20.5	54	112	50
Cc1cc(-n2ncn(CC(=O)[C@H]3CC[C@H]4[C@@H]5CC[C@@H]6C[C@](C)(O)CC[C@@H]6[C@H]5CC[C@]34C)c2=O)ccn1 [Compound 36]	871	53	23	15.9	59	745	125	29	12.2	69	119	99
